Assay results published in ChEMBL document CHEMBL3885861, “Open TG-GATES”.

Species on record: Rattus norvegicus
Assay: Open TG-GATES - Regimen: Single
Assay type: toxicity, organism-based, Sprague-Dawley
Set-up: regimen Single, gender Male, age 6 weeks
Conditions: in vivo, po, 100 mg/kg, route gavage, dose level Low; for APTT / Bas / Eos / Fbg / Hb / Ht / Lym / MCH / MCHC / MCV / Mono / Neu / PT / Plat / RBC / Ret / WBC: tissue Blood; for KIDNEY_L / KIDNEY_R / KIDNEY_TOTAL: tissue Kidney; for LIVER: tissue Liver; for A/G / ALP / ALT / AST / BUN / CRE / Ca / Cl / DBIL / GLC / IP / K / LDH / Na / PL / RALB / TBIL / TC / TG / TP / gamma-GTP: tissue Plasma

**Q.** Which results are given for O=C(OC[C@H]1O[C@@H](OC(=O)c2cc(O)c(O)c(OC(=O)c3cc(O)c(O)c(O)c3)c2)[C@H](OC(=O)c2cc(O)c(O)c(OC(=O)c3cc(O)c(O)c(O)c3)c2)[C@@H](OC(=O)c2cc(O)c(O)c(OC(=O)c3cc(O)c(O)c(O)c3)c2)[C@@H]1OC(=O)c1cc(O)c(O)c(OC(=O)c2cc(O)c(O)c(O)c2)c1)c1cc(O)c(O)c(OC(=O)c2cc(O)c(O)c(O)c2)c1 [TANNIC ACID]?
**A.** TERMINAL_BW (9 h): 180.9 g; APTT (9 h): 16.4 s; Bas (9 h): 0%; Eos (9 h): 1%; Fbg (9 h): 217.4 mg/dL; Hb (9 h): 13.2 g/dL; Ht (9 h): 39.3%; Lym (9 h): 80.4%; MCH (9 h): 22.3 pg; MCHC (9 h): 33.6%; MCV (9 h): 66.5 fL; Mono (9 h): 6.8%; Neu (9 h): 12%; PT (9 h): 12 s; Plat (9 h): 112.9 x10_4/uL; RBC (9 h): 591.6 x10_4/ul; Ret (9 h): 10.1%; WBC (9 h): 105.1 x10_2/uL; KIDNEY_L (9 h): 0.8 g; KIDNEY_R (9 h): 0.8 g; KIDNEY_TOTAL (9 h): 1.6 g; LIVER (9 h): 7.2 g; A/G (9 h): 2; ALP (9 h): 837.8 IU/L; ALT (9 h): 35.2 IU/L; AST (9 h): 64.2 IU/L; BUN (9 h): 12.6 mg/dL; CRE (9 h): 0.4 mg/dL; Ca (9 h): 10.3 mg/dL; Cl (9 h): 106.4 meq/L; DBIL (9 h): 0.072 mg/dL; GLC (9 h): 190.2 mg/dL; IP (9 h): 10.2 mg/dL; K (9 h): 4.9 meq/L; LDH (9 h): 101.4 IU/L; Na (9 h): 137.6 meq/L; PL (9 h): 135.2 mg/dL; RALB (9 h): 3.6 g/dL; TBIL (9 h): 0.5 mg/dL; TC (9 h): 78.8 mg/dL; TG (9 h): 24.6 mg/dL; TP (9 h): 5.4 g/dL; gamma-GTP (9 h): 1.6 IU/L; TERMINAL_BW (24 h): 201.1 g; APTT (24 h): 16.7 s; Bas (24 h): 0%; Eos (24 h): 1%; Fbg (24 h): 227.8 mg/dL; Hb (24 h): 12.8 g/dL; Ht (24 h): 38.4%; Lym (24 h): 78.8%; MCH (24 h): 21.9 pg; MCHC (24 h): 33.4%; MCV (24 h): 65.6 fL; Mono (24 h): 5.4%; Neu (24 h): 14.8%; PT (24 h): 11.7 s; Plat (24 h): 114.5 x10_4/uL; RBC (24 h): 585.2 x10_4/ul; Ret (24 h): 10.1%; WBC (24 h): 96.6 x10_2/uL; KIDNEY_L (24 h): 0.9 g; KIDNEY_R (24 h): 0.9 g; KIDNEY_TOTAL (24 h): 1.8 g; LIVER (24 h): 9.7 g; A/G (24 h): 2; ALP (24 h): 823.4 IU/L; ALT (24 h): 41.2 IU/L; AST (24 h): 63 IU/L; BUN (24 h): 17.8 mg/dL; CRE (24 h): 0.5 mg/dL; Ca (24 h): 10.8 mg/dL; Cl (24 h): 103.8 meq/L; DBIL (24 h): 0.008 mg/dL; GLC (24 h): 190.6 mg/dL; IP (24 h): 8.7 mg/dL; K (24 h): 4.5 meq/L; LDH (24 h): 98.2 IU/L; Na (24 h): 138 meq/L; PL (24 h): 147.2 mg/dL; RALB (24 h): 3.6 g/dL; TBIL (24 h): 0.3 mg/dL; TC (24 h): 81.4 mg/dL; TG (24 h): 101.6 mg/dL; TP (24 h): 5.5 g/dL; gamma-GTP (24 h): 1 IU/L
